From ChEMBL document CHEMBL3351479, “Novel acylureidoindolin-2-one derivatives as dual Aurora B/FLT3 inhibitors for the treatment of acute myeloid leukemia” (Eur J Med Chem, 2014)
Activity calls are given as the source filed them. The rule behind the calls is not given here.

Legend:
[1] = AUC (0 to 24 hrs) in BALB/c mouse at 2 mg/kg, iv; assay type: ADME, organism-based; design: time < 24 hr, dose 2 mg/kg, route intravenous; conditions: plasma
[2] = Therapeutic index, ratio of LD50 for BALB/c AnN.Cg-Foxnlnu/CrlNarl mouse to ED50 for antitumor activity against human MOLM13 cells xenografted in BALB/c AnN.Cg-Foxnlnu/CrlNarl mouse; assay type: cell-based, MOLM-13; conditions: in vivo, read-out: Ratio LD50/ED50
[3] = target: Mast/stem cell growth factor receptor Kit (Homo sapiens, UniProt P10721); assay: Inhibition of c-Kit (unknown origin)
[4] = Cmax in BALB/c mouse at 10 mg/kg, po; assay type: ADME, organism-based; design: dose 10 mg/kg, route oral; conditions: in vivo
[5] = Clearance in BALB/c mouse at 2 mg/kg, iv; assay type: ADME, organism-based; design: dose 2 mg/kg, route intravenous; conditions: in vivo
[6] = Volume of distribution at steady state in BALB/c mouse at 2 mg/kg, iv; assay type: ADME, organism-based; design: dose 2 mg/kg, route intravenous; conditions: in vivo, read-out: Vdss
MV4-11 = assay: Cytotoxicity against human MV4-11 cells assessed as cell viability after 48 hrs by MTT assay; assay type: functional, cell-based; conditions: Homo sapiens, MV4-11, 48 h
[7] = Tmax in BALB/c mouse at 10 mg/kg, po; assay type: ADME, organism-based; design: dose 10 mg/kg, route oral; conditions: in vivo
Vero = assay: Cytotoxicity against african green monkey Vero cells at 10 uM after 48 hrs by MTT assay; assay type: cell-based; conditions: chlorocebus sabaeus
[8] = Cmax in BALB/c mouse at 2 mg/kg, iv; assay type: ADME, organism-based; design: dose 2 mg/kg, route intravenous; conditions: in vivo
Cytochrome P450 3A4 = Cytochrome P450 3A4 (Homo sapiens, UniProt P08684); assay: Inhibition of CYP3A4 (unknown origin) using Vivid OOMR substrate; assay type: ADME
[9] = AUC (0 to 24 hrs) in BALB/c mouse at 10 mg/kg, po; assay type: ADME, organism-based; design: time < 24 hr, dose 10 mg/kg, route oral; conditions: plasma
[10] = Half life in BALB/c mouse at 10 mg/kg, po; assay type: ADME, organism-based; design: dose 10 mg/kg, route oral; conditions: in vivo
MOLM-13 [11] = assay: Antitumor activity against human MOLM13 cells xenografted in BALB/cAnN.Cg-Foxnlnu/CrlNarl mouse assessed as reduction in tumor mass at 10 mg/kg, ip once daily for 16 days; assay type: functional; conditions: MOLM-13, ip, 384 h, route intraperitoneal
MOLM-13 [12] = assay: Cytotoxicity against human MOLM13 cells assessed as cell viability after 48 hrs by MTT assay; assay type: functional, cell-based; conditions: MOLM-13, 48 h
THP-1 [13] = assay: Cytotoxicity against human THP1 cells assessed as cell viability after 48 hrs by MTT assay; assay type: functional, cell-based; conditions: Homo sapiens, THP-1, 48 h
[14] = Oral bioavailability in BALB/c mouse at 10 mg/kg; assay type: ADME, organism-based; conditions: in vivo
[15] = target: T1, Tyrosine-protein kinase Lck (Homo sapiens, UniProt P06239); assay: Inhibition of Lck (unknown origin)
[16] = Half life in BALB/c mouse at 2 mg/kg, iv; assay type: ADME, organism-based; design: dose 2 mg/kg, route intravenous; conditions: in vivo
[17] = Toxicity in BALB/c AnN.Cg-Foxnlnu/CrlNarl mouse xenografted with human MOLM13 cells at 10 mg/kg, ip administered qd for 16 days; assay type: organism-based, MOLM-13; design: dose 10 mg/kg, route intraperitoneal; conditions: in vivo
MOLM-13 [18] = assay: Antitumor activity against human MOLM13 cells xenografted in BALB/c AnN.Cg-Foxnlnu/CrlNarl mouse assessed as reduction in tumor growth at 10 mg/kg, ip once daily for 16 days; assay type: functional; conditions: MOLM-13, ip, 384 h, route intraperitoneal
[19] = Ratio of solubility in PBS to solubility in DMSO; assay type: physicochemical
[20] = Cytotoxicity against human HL60 cells assessed as cell viability after 48 hrs by MTT assay; assay type: functional, cell-based; conditions: HL-60, 48 h
Mus musculus = assay: Toxicity in BALB/c AnN.Cg-Foxnlnu/CrlNarl mouse xenografted with human MOLM13 cells assessed as body weight loss at 10 mg/kg, ip administered qd for 16 days; assay type: organism-based, MOLM-13; design: dose 10 mg/kg, route intraperitoneal; conditions: in vivo, 384 h
Cytochrome P450 2D6 = Cytochrome P450 2D6 (Homo sapiens, UniProt P10635); assay: Inhibition of CYP2D6 (unknown origin) using 3-cyano-7-ethoxycoumarin substrate; assay type: ADME
[21] = Tmax in BALB/c mouse at 2 mg/kg, iv; assay type: ADME, organism-based; design: dose 2 mg/kg, route intravenous; conditions: in vivo
[22] = target: Cytochrome P450 1A2 (Homo sapiens) (UniProt P05177); assay: Inhibition of CYP1A2 (unknown origin) using 3-cyano-7-ethoxycoumarin substrate
Cytochrome P450 2C19 = Cytochrome P450 2C19 (Homo sapiens, UniProt P33261); assay: Inhibition of CYP2C19 (unknown origin) using 3-cyano-7-ethoxycoumarin substrate; assay type: ADME
Cytochrome P450 2C9 = Cytochrome P450 2C9 (Homo sapiens, UniProt P11712); assay: Inhibition of CYP2C9 (unknown origin) using Vivid OOMR substrate; assay type: ADME
[23] = Permeability coefficient of the compound at pH 7.4 by PAMPA-GIT assay; assay type: ADME; conditions: read-out: Peff
[24] = target: Voltage-gated inwardly rectifying potassium channel KCNH2 (Homo sapiens, UniProt Q12809); assay: Inhibition of human ERG channel after 3 hrs by fluorescence assay
[25] = target: Platelet-derived growth factor receptor beta (Homo sapiens) (UniProt P09619); assay: Inhibition of PDGFRbeta (unknown origin) at 1 uM
[26] = target: Rho-associated protein kinase 1 (Homo sapiens) (UniProt Q13464); assay: Inhibition of ROCK1 (unknown origin) at 1 uM
[27] = target: Serine/threonine-protein kinase mTOR (Homo sapiens) (UniProt P42345); assay: Inhibition of mTOR/FRAP1 (unknown origin) at 1 uM
MOLM-13 [28] = assay: Induction of apoptosis in human MOLM13 cells assessed as caspase 3 activation after 24 hrs; assay type: functional, cell-based
[29] = target: Aurora kinase C (Homo sapiens) (UniProt Q9UQB9); assay: Inhibition of Aurora C (unknown origin) at 1 uM
[30] = target: Insulin-like growth factor 1 receptor (Homo sapiens) (UniProt P08069); assay: Inhibition of IGF1R (unknown origin) at 1 uM
MOLM-13 [31] = assay: Antitumor activity against human MOLM13 cells xenografted in ip dosed BALB/c AnN.Cg-Foxnlnu/CrlNarl mouse assessed as reduction in tumor growth treated once daily for 16 days; assay type: functional, organism-based
[32] = target: RAC-alpha serine/threonine-protein kinase (Homo sapiens) (UniProt P31749); assay: Inhibition of AKT1 (unknown origin) at 1 uM
THP-1 [33] = assay: Induction of apoptosis in human THP1 cells assessed as caspase 3 activation after 24 hrs; assay type: functional, cell-based
[34] = target: Fibroblast growth factor receptor 1 (Homo sapiens) (UniProt P11362); assay: Inhibition of FGFR1 (unknown origin) at 1 uM
[35] = target: Tyrosine-protein kinase JAK2 (Homo sapiens) (UniProt O60674); assay: Inhibition of JAK2 (unknown origin) at 1 uM
[36] = target: Tyrosine-protein kinase Lyn (Homo sapiens) (UniProt P07948); assay: Inhibition of Lyn (unknown origin) at 1 uM
[37] = target: Vascular endothelial growth factor receptor 2 (Homo sapiens) (UniProt P35968); assay: Inhibition of KDR/VEGFR2 (unknown origin) at 1 uM
[38] = target: Angiopoietin-1 receptor (Homo sapiens) (UniProt Q02763); assay: Inhibition of TEK/Tie-2 (unknown origin) at 1 uM
[39] = target: Receptor-type tyrosine-protein kinase FLT3 (Homo sapiens) (UniProt P36888); assay: Inhibition of Aurora B/FLT3 in human MOLM13 cells assessed as inhibition of HH3 phosphorylation after 4 hrs by Dot-blot analysis; assay type: cell-based; conditions: MOLM-13
[40] = target: Proto-oncogene tyrosine-protein kinase Src (Homo sapiens) (UniProt P12931); assay: Inhibition of c-Src (unknown origin) at 1 uM
[41] = target: Receptor-type tyrosine-protein kinase FLT3 (Homo sapiens) (UniProt P36888); assay: Inhibition of Aurora B/FLT3 in human MOLM13 cells assessed as inhibition of STAT5 phosphorylation after 4 hrs by Dot-blot analysis; assay type: cell-based; conditions: MOLM-13
[42] = target: Platelet-derived growth factor receptor alpha (Homo sapiens) (UniProt P16234); assay: Inhibition of PDGFRalpha (unknown origin) at 1 uM
[43] = target: Tyrosine-protein kinase ABL1 (Homo sapiens) (UniProt P00519); assay: Inhibition of ABL1 (unknown origin) at 1 uM
[44] = target: Serine/threonine-protein kinase Chk1 (Homo sapiens) (UniProt O14757); assay: Inhibition of CHK1 (unknown origin) at 1 uM
[45] = target: Aurora kinase A (Homo sapiens) (UniProt O14965); assay: Inhibition of Aurora A (unknown origin) at 1 uM
[46] = target: Dual specificity mitogen-activated protein kinase kinase 1 (Homo sapiens) (UniProt Q02750); assay: Inhibition of MEK1/MAP2K1 (unknown origin) at 1 uM
[47] = target: T1, Tyrosine-protein kinase Lck; conditions: 1 uM
Description: Inhibition of Lck (unknown origin) at 1 uM

[48] = target: Mitogen-activated protein kinase 9 (Homo sapiens) (UniProt P45984); assay: Inhibition of JNK2 (unknown origin) at 1 uM
MOLM-13 [49] = assay: Induction of apoptosis in human MOLM13 cells assessed as caspase 8 activation after 24 hrs; assay type: functional, cell-based
THP-1 [50] = assay: Induction of apoptosis in human THP1 cells assessed as caspase 8 activation after 24 hrs; assay type: functional, cell-based
[51] = target: Epidermal growth factor receptor (Homo sapiens) (UniProt P00533); assay: Inhibition of EGFR (unknown origin) at 1 uM
[52] = target: Serine/threonine-protein kinase PLK1 (Homo sapiens) (UniProt P53350); assay: Inhibition of Plk1 (unknown origin) at 1 uM
[53] = target: Serine/threonine-protein kinase B-raf (Homo sapiens) (UniProt P15056); assay: Inhibition of BRAF (unknown origin) at 1 uM
MOLM-13 [54] = assay: Induction of apoptosis in human MOLM13 cells assessed as increase in FasL level up to 20 uM; assay type: functional, cell-based
[55] = target: Receptor tyrosine-protein kinase erbB-2 (Homo sapiens) (UniProt P04626); assay: Inhibition of ERBB2/Her2 (unknown origin) at 1 uM
[56] = target: Hepatocyte growth factor receptor (Homo sapiens) (UniProt P08581); assay: Inhibition of c-Met (unknown origin) at 1 uM
A549 = assay: Induction of apoptosis in human A549 cells assessed as caspase 8 activation after 24 hrs; assay type: functional, cell-based

Sequence of Receptor-type tyrosine-protein kinase FLT3 (Homo sapiens) (P36888 whole entry): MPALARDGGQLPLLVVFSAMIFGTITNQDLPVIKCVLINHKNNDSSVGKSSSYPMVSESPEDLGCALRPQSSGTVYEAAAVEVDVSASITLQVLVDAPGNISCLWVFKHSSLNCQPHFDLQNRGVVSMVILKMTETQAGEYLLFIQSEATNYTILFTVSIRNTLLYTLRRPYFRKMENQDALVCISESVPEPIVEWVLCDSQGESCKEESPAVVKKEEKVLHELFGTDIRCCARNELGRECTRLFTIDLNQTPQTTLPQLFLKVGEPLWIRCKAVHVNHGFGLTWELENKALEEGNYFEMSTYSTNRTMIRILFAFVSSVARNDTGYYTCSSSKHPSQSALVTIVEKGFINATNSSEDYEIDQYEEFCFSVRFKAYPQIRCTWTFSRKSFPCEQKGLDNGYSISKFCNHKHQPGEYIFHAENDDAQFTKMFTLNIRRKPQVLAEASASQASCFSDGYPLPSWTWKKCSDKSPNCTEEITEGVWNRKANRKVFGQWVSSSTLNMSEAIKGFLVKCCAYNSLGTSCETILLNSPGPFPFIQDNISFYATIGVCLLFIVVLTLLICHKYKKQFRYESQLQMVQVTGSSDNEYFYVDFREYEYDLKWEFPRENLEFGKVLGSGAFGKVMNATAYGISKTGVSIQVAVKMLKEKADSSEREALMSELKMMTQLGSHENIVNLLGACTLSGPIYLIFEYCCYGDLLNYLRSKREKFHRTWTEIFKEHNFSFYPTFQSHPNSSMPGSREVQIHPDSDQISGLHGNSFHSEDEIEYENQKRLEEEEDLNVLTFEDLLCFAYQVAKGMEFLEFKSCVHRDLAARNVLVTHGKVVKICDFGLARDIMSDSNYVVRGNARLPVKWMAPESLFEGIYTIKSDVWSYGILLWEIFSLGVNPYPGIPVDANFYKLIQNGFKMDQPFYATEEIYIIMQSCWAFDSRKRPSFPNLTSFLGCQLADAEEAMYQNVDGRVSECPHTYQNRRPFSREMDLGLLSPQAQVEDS
Sequence of Voltage-gated inwardly rectifying potassium channel KCNH2 (Q12809 whole entry): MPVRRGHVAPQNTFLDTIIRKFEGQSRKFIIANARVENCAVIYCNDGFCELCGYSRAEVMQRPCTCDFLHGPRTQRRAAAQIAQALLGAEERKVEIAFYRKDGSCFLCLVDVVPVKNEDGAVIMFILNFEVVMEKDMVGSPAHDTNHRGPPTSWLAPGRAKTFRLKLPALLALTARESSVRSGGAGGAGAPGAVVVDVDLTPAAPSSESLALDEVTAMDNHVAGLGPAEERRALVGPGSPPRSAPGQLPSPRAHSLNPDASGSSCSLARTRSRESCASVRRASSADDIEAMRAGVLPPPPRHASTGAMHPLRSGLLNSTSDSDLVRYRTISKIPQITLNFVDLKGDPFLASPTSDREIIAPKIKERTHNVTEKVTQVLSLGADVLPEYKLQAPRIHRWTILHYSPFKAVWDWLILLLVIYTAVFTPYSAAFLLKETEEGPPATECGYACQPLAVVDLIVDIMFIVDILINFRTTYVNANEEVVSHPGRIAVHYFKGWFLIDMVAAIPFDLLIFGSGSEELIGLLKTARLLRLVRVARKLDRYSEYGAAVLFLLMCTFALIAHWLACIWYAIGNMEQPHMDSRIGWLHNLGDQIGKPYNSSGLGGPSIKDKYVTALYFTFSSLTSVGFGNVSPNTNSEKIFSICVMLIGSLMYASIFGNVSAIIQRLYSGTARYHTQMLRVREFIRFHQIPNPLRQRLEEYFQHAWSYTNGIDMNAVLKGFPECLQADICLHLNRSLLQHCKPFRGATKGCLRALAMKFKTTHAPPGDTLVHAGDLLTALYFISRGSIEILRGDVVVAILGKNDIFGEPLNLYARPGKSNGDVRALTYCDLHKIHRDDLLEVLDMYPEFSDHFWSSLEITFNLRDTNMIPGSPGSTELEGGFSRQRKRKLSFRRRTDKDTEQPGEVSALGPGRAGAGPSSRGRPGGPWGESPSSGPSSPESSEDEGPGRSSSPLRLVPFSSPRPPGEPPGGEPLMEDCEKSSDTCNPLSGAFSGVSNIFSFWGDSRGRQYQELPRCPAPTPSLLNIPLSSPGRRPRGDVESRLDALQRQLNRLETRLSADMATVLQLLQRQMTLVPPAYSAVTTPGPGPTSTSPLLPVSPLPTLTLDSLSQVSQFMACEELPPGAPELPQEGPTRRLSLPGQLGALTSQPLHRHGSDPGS
Sequence of Fibroblast growth factor receptor 1 (Homo sapiens) (P11362 22-822 limits assumed): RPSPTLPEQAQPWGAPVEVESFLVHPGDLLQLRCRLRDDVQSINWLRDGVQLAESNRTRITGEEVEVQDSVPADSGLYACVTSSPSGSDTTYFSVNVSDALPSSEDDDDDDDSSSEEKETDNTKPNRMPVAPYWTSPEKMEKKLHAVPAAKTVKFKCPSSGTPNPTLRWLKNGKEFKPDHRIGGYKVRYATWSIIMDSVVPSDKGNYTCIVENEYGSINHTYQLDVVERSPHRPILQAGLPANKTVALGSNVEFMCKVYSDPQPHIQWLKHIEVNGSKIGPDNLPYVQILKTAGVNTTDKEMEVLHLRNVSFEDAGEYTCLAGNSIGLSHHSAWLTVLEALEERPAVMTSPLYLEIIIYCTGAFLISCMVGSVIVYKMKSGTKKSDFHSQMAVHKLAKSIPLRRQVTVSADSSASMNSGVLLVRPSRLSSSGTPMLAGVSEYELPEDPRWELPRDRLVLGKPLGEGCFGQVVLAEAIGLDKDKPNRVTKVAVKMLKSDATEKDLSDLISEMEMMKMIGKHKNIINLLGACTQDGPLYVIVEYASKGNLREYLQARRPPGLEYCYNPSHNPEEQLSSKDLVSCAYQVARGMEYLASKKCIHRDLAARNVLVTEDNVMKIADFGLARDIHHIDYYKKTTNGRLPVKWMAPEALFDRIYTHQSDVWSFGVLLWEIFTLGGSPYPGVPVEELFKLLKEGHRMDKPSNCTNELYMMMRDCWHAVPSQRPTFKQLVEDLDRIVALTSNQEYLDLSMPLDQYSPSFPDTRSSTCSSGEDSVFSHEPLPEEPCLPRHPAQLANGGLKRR
Sequence of RAC-alpha serine/threonine-protein kinase (Homo sapiens) (P31749 whole entry): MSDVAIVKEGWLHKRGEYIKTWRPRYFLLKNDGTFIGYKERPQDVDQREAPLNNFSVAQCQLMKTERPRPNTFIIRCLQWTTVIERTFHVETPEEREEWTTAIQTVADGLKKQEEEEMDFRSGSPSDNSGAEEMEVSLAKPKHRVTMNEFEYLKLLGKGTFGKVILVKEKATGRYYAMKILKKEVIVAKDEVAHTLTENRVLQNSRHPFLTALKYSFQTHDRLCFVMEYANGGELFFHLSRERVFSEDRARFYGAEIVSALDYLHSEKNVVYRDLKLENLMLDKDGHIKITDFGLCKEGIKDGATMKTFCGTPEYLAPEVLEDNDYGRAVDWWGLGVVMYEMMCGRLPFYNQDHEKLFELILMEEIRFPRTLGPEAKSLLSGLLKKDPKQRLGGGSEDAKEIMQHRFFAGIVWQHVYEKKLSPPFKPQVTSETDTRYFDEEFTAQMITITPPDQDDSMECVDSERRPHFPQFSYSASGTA
Sequence of Receptor tyrosine-protein kinase erbB-2 (Homo sapiens) (P04626 whole entry): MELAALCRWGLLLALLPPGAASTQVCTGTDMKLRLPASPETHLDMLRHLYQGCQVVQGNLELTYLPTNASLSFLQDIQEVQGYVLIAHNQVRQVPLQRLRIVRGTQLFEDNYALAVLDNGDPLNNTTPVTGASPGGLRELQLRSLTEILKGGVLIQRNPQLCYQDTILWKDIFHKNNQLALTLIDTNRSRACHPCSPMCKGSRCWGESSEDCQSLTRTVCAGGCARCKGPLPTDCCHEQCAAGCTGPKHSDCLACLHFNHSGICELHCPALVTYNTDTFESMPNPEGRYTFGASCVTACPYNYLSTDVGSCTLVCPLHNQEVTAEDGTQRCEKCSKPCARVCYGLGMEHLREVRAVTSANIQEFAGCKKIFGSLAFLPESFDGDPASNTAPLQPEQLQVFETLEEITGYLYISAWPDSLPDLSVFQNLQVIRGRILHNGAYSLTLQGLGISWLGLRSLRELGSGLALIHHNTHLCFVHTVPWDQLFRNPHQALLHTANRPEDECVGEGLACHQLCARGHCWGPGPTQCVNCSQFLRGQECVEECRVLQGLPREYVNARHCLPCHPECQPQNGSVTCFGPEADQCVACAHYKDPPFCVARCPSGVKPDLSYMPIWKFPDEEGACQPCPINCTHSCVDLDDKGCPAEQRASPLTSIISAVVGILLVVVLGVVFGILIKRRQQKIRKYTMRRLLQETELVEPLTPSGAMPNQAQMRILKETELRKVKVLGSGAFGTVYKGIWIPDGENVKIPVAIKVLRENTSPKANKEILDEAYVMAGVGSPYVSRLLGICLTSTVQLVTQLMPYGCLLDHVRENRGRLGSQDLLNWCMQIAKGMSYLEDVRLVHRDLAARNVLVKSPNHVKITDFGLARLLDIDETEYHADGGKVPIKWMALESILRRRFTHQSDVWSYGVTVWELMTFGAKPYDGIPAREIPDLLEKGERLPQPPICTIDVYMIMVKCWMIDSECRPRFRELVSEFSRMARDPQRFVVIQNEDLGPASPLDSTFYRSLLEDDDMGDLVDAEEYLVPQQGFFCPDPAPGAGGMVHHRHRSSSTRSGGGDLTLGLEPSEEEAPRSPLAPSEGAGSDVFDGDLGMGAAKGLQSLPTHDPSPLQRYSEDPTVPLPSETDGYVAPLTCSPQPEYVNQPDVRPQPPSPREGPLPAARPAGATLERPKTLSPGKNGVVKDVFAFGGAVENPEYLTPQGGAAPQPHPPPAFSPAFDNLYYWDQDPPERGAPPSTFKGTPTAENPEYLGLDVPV
Sequence of Aurora kinase C (Homo sapiens) (Q9UQB9 whole entry): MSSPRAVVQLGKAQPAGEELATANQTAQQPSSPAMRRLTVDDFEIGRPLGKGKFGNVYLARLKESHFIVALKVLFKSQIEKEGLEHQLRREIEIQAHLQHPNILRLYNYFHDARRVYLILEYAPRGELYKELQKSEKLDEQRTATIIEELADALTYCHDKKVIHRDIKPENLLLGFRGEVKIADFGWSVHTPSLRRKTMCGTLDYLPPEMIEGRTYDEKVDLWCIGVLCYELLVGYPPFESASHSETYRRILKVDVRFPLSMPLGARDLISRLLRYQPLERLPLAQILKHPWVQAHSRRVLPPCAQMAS

SMILES: COc1ccc(C(=O)NC(=O)Nc2ccc3c(c2)NC(=O)/C3=C\c2[nH]c(C)c(C(=O)NCCN3CCCC3)c2C)c(F)c1 [listing 1 of 2 here]
- AUC(0-t) at 24 h [1]: 1960 ng·h/mL
- selectivity ratio [2]: > 10
- IC50 [3]: 14 nM
- Cmax [4]: 20.9 ng/mL
- clearance [5]: 8.33 mL/min/kg
- Vd [6]: 22.2 L/kg
- IC50 (MV4-11): 2.4 nM
- Tmax [7]: 1.7 h
- Activity (Vero): Non-toxic
- Cmax [8]: 654 ng/mL
- IC50 (Cytochrome P450 3A4): > 10000 nM
- AUC(0-t) at 24 h [9]: 252 ng·h/mL
- half-life [10]: 8.6 h
- inhibition in vivo at 10 mg/kg (MOLM-13 [11]): 95%
- IC50 (MOLM-13 [12]): 0.7 nM
- IC50 (THP-1 [13]): 48.9 nM
- bioavailability [14]: 2.6%
- IC50 [15]: 2.3 nM
- half-life [16]: 27.6 h
- LD50 at 384 h [17]: > 20 mg/kg
- inhibition in vivo at 10 mg/kg (MOLM-13 [18]): > 90%
- Ratio [19]: 0.36
- IC50 [20]: 2.8 nM
- Activity (Mus musculus): Non-toxic
- IC50 (Cytochrome P450 2D6): > 10000 nM
- Tmax [21]: 6 min
- IC50 [22]: > 10000 nM
- IC50 (Cytochrome P450 2C19): > 10000 nM
- IC50 (Cytochrome P450 2C9): > 10000 nM
- Papp [23]: 1.78 ×10⁻⁶ cm/s
- IC50 [24]: 9670 nM

SMILES: COc1ccc(C(=O)NC(=O)Nc2ccc3c(c2)NC(=O)/C3=C\c2[nH]c(C)c(C(=O)NCCN3CCCC3)c2C)c(F)c1 [listing 2 of 2 here]
- inhibition [25]: 74%
- inhibition [26]: 55%
- inhibition [27]: inactive
- Activity (MOLM-13 [28]): Dose-dependent effect
- inhibition [29]: 20%
- inhibition [30]: 10%
- inhibition (MOLM-13 [31]): Dose-dependent effect
- inhibition [32]: 40%
- Activity (THP-1 [33]): Dose-dependent effect
- inhibition [34]: 23%
- inhibition [35]: inactive
- inhibition [36]: 62%
- inhibition [37]: 20%
- inhibition [38]: 32%
- inhibition [39]: Dose-dependent effect
- inhibition [40]: 20%
- inhibition [41]: Dose-dependent effect
- inhibition [42]: 57%
- inhibition [43]: 65%
- inhibition [44]: 18%
- inhibition [45]: 21%
- inhibition [46]: 38%
- inhibition [47]: 97%
- inhibition [48]: 32%
- Activity (MOLM-13 [49]): Dose-dependent effect
- Activity (THP-1 [50]): Dose-dependent effect
- inhibition [51]: inactive
- inhibition [52]: 13%
- inhibition [53]: inactive
- Activity (MOLM-13 [54]): Active
- inhibition [55]: 2%
- inhibition [56]: 40%
- Activity (A549): Dose-dependent effect
